Molecular target: T1, Topoisomerase I (Mus musculus, UniProt Q04750)
T1 construct: immunoblotted with an anti-Topoisomerase I antibody (Santa Cruz) to detect free Topoisomerase I; endogenous in cells; host or cells: DIV7 primary mouse cortical neurons (Ube3a m-/p+ and wild type)
T1 sequence (Q04750 1-767): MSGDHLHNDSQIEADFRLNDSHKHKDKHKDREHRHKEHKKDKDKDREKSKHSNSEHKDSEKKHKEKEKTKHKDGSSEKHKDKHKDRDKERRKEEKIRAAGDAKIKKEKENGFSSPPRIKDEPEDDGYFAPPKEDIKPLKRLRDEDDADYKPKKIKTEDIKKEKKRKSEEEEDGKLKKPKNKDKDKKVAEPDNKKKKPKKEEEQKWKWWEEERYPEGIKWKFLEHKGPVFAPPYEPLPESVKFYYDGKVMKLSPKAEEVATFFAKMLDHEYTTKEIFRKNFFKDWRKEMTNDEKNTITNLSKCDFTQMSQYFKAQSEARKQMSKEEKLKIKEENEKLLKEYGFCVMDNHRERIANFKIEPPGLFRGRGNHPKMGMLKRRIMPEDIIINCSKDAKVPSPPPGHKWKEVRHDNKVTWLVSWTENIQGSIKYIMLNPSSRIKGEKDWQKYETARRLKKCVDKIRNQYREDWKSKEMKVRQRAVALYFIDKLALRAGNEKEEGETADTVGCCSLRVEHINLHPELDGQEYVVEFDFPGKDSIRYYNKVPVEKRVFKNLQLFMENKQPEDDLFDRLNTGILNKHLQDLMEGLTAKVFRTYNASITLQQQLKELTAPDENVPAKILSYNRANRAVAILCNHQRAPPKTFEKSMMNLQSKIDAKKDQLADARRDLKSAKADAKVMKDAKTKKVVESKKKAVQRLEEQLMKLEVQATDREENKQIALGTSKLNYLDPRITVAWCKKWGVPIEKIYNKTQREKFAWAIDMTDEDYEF
Test: Topoisomerase depletion assay (free TOP1 by Western blot)
Format: cell-based
Settings: 300 nM, 72 h, cultured neurons
Method: Cells were harvested and lysed on ice for 30 min in RIPA buffer (50 mM Tris-HCl, 150 mM NaCl, 1% Triton X-100, 0.5% sodium deoxycholate, 0.1% SDS, pH 7.4) to preserve topoisomerase cleavable complexes. Cell extracts were then centrifuged at 14,000 rpm at 4° C. to pellet insoluble debris. 30 μg of the cell supernatant was diluted in 2×SDS sample buffer and separated on a 7.5% SDS-PAGE gel, transferred to PVDF membrane, and immunoblotted with an anti-Topoisomerase I antibody (Santa Cruz) to detect free Topoisomerase I. An anti-β-Tubulin (Sigma) antibody was used as a loading control.

SMILES: CC[C@@]1(O)C(=O)OCc2c1cc1n(c2=O)Cc2cc3c(CN(C)C)c(O)ccc3nc2-1 [Topotecan]
- amount of free (unbound) TOP1: significantly reduce the amount of free TOP1
